Source: patent US20260097111A1, “ETHER LIPIDS FOR HYPERACTIVATION OF MAMMALIAN DENDRITIC CELLS” (priority 2022, published 2026)
Entries after “also recorded” stand apart in the source; their conditions may differ.

Test system: human monocyte-derived dendritic cells (moDCs)
Test: IL-1β secretion by human moDCs treated with lipid and R848
Assay type: cell-based
Details: for IL-1β secretion / IL-1β secretion, dependence on the NLRP3 inflammasome: human moDCs; for IL-1β secretion, dependence on the NLRP3 inflammasome: R848 + lipid with or without MCC950, one day, FIG. 3B

SMILES | hyperactivation of human dendritic cells (41.25 μM lipid with R848 (Compound 1 also 20.6 μM)) | IL-1β secretion (41.25 μM lipid with R848, FIG. 17) | IL-1β secretion (41.3 uM lipid with R848, FIG. 11) | IL-1β secretion (24 hours, lipid (equimolar, in 0.5% KP407) with R848, FIG. 1B, listed as DGP) | IL-1β secretion (24 hours, lipid in 4% KP407 with R848, FIG. 2B) | IL-1β secretion, dependence on the NLRP3 inflammasome
CCCCCCCCCCCCCCCCCCCCCCOC[C@@H](O)COP(=O)(O)O [Compound 2, 1-docosyl-sn-glycerol-3-phosphate] | hyperactivating lipids; also recorded: hyperactivated dendritic cells | significant increase in IL-1β | robustly induced IL-113 secretion | IL-1β was secreted to a greater extent than 22:0 lyso PC; also recorded: more potent hyperactivator compared to DGPC (Compound 1) and 22:0 lyso PC | produced significantly more IL-1β | depend on the NLRP3 inflammasome for IL-1β secretion
CC(C)(O)c1coc(S(=O)(=O)NC(=O)Nc2c3c(cc4c2CCC4)CCC3)c1 [MCC950, reference compound] |  |  |  |  |  | diminished the IL-1β output
